# Test results published in patent US20220265817A1, “THERAPEUTIC COMPOSITIONS AND METHODS FOR TREATING HEPATITIS B” (priority 2017, published 2022).
# Where “and” joins values, the source holds several entries; their conditions need not be identical. Equal entries are not always repeated. Where two headings read alike, the source gives them in different places.
# Legend:
# Test in all cases: microbe, parasite or virus in culture
# Assay type in all cases: cell-based
# [1] = system: D type HBV in primary human hepatocytes (HBeAg)
# Experimental: (§1) The mouse liver perfusion was applied to isolate PHHs. The isolated hepatocytes were further purified by Percoll. The cells were resuspended with culture media and seeded into the 96-well plates (6×10^4 cell/well) or 48-well plates (1.2×10^5 cell/well). The PHHs were infected with a D type HBV one day post seeding (day 1).
# (§2) On day 2, the test compounds were diluted and added into the cell culture plates. The culture media containing the compounds were refreshed every other day. The cell culture supernatants were collected on day 8 for the HBV DNA and antigen determinations.
# (§3) The compounds were tested at 7 concentrations, 3-fold dilution, in triplicate.
# (§4) Two compounds were tested at 5×5 matrix, in triplicate plates.
# (§5) HBsAg/HBeAg in the culture supernatants harvested on days 8 were measured by the HBsAg/HBeAg ELISA kit (Autobio) according to the manual. The samples were diluted with PBS to get the signal in the range of the standard curve. The inhibition rates were calculated with the formula below. The combination effect was analyzed by the MacSynergy software.
# % Inh. HBeAg=[1-HBeAg quantity of sample/HBV quantity of DMSO control]×100.
# [2] = system: D type HBV in primary human hepatocytes; conditions: for EC50: PHH
# Experimental: as §1, §2, §3, §4
# DNA in the culture supernatants harvested on days 8 were isolated with QIAamp 96 DNA Blood Kit (Qiagen-51161). For each sample, 100 μl of the culture supernatants was used to extract DNA. The DNA was eluted with 100 μl, 150 μl or 180 μl of AE. HBV DNA in the culture supernatants was quantified by qPCR. The combination effect was analyzed by the MacSynergy software. The primers are described below.
# [3] = system: D type HBV in primary human hepatocytes (HBsAg)
# Experimental: as §1, §2, §3, §4, §5
# % Inh. HBsAg=[1-HBsAg quantity of sample/HBV quantity of DMSO control]×100.
# [4] = Hepatitis B virus, Hepatocyte, 432 h, read-out: Inhibitor B EC50
# [5] = Hepatitis B virus, Hepatocyte, 456 h, read-out: Inhibitor A EC50
smiles,measurement,setting,value
COCCCOc1cc2c(cc1OC)-c1cc(=O)c(C(=O)O)cn1C(C(C)C)C2 (centres unmarked) [Compound 25],AVERAGE % INHIBITION HBeAg,[1]; COMPOUND 25 0.12 nM alone,4.8%
same,AVERAGE % INHIBITION HBeAg,[1]; COMPOUND 25 0.37 nM alone,−0.51% and 2.9%
same,AVERAGE % INHIBITION HBeAg,[1]; COMPOUND 25 3.33 nM alone,13.94%
same,AVERAGE % INHIBITION HBeAg,[1]; COMPOUND 25 10.00 nM alone,28.42%
same,EC50,[1]; [4],5.75 nM
same,EC50,[1]; [5],5.75 nM
same,inhibition at 0.00012 µM,"[1]; Hepatitis B virus, Hepatocyte, read-out: AVERAGE % INHIBITION HBeAg, COMPOUND 25 0.12 nM alone",5.33%
same,inhibition at 0.00333 µM,"[1]; Hepatitis B virus, Hepatocyte, read-out: AVERAGE % INHIBITION HBeAg, COMPOUND 25 3.33 nM alone",8.74%
same,inhibition at 0.01 µM,"[1]; Hepatitis B virus, Hepatocyte, read-out: AVERAGE % INHIBITION HBeAg, COMPOUND 25 10.00 nM alone",33.2%
same,inhibition at 0.12 µM,"[1]; Hepatitis B virus, Hepatocyte, read-out: AVERAGE % INHIBITION HBeAg, COMPOUND 25 0.12 μM alone",-11.2%
same,inhibition at 0.37 µM,"[1]; Hepatitis B virus, Hepatocyte, read-out: AVERAGE % INHIBITION HBeAg, COMPOUND 25 0.37 μM alone",-13.8%
same,inhibition at 3.33 µM,"[1]; Hepatitis B virus, Hepatocyte, read-out: AVERAGE % INHIBITION HBeAg, COMPOUND 25 3.33 μM alone",-7.31%
same,inhibition at 10 µM,"[1]; Hepatitis B virus, Hepatocyte, read-out: AVERAGE % INHIBITION HBeAg, COMPOUND 25 10.00 μM alone",22%
same,EC50,"[1]; Hepatitis B virus, Hepatocyte, read-out: Inhibitor A EC50 HBeAg",5.75 nM
same,AVERAGE % INHIBITION HBV DNA,[2]; COMPOUND 25 0.37 nM alone,−51.8% and −46.48%
same,AVERAGE % INHIBITION HBV DNA,[2]; COMPOUND 25 3.33 nM alone,16.41%
same,AVERAGE % INHIBITION HBV DNA,[2]; COMPOUND 25 10.00 nM alone,37.39%
same,EC50,"[2]; Hepatitis B virus, Hepatocyte, 432 h, HBV DNA endpoint, determined in an earlier separate experiment (Table 18d), read-out: Inhibitor B EC50",0.654 nM
same,EC50,"[2]; Hepatitis B virus, Hepatocyte, 456 h, HBV DNA endpoint, determined in an earlier separate experiment (Table 19d), read-out: Inhibitor A EC50",0.654 nM
same,inhibition at 0.00333 µM,"[2]; Hepatitis B virus, Hepatocyte, read-out: AVERAGE % […] DNA, COMPOUND 25 3.33 nM alone, read-out: AVERAGE % INHIBITION HBV DNA",15.2%
same,inhibition at 0.01 µM,"[2]; Hepatitis B virus, Hepatocyte, read-out: AVERAGE % […] DNA, COMPOUND 25 10.00 nM alone, read-out: AVERAGE % INHIBITION HBV DNA",28%
same,inhibition at 0.12 µM,"[2]; Hepatitis B virus, Hepatocyte, read-out: AVERAGE % […] DNA, compound 25 0.12 μM alone",-14.4%
same,inhibition at 0.37 µM,"[2]; Hepatitis B virus, Hepatocyte, read-out: AVERAGE % […] DNA, compound 25 0.37 μM alone",-9.87%
same,inhibition at 3.33 µM,"[2]; Hepatitis B virus, Hepatocyte, read-out: AVERAGE % […] DNA, compound 25 3.33 μM alone",32.6%
same,inhibition at 10 µM,"[2]; Hepatitis B virus, Hepatocyte, read-out: AVERAGE % […] DNA, compound 25 10.00 μM alone",53.8%
same,EC50,"[2]; Hepatitis B virus, Hepatocyte, determined in an earlier separate experiment, read-out: Inhibitor A EC50 HBV DNA",0.653 nM
same,AVERAGE % INHIBITION (HBsAg),[3]; COMPOUND 25 0.12 nM alone,3.68% and 9.32%
same,AVERAGE % INHIBITION (HBsAg),[3]; COMPOUND 25 3.33 nM alone,20.81%
same,AVERAGE % INHIBITION (HBsAg),[3]; COMPOUND 25 10.00 nM alone,42.95%
same,EC50,[3]; [4],4.5 nM
same,EC50,[3]; [5],4.5 nM
same,inhibition at 0.12 µM,"[3]; Hepatitis B virus, Hepatocyte, COMPOUND 25 0.12 μM alone",-5.64%
same,inhibition at 0.37 µM,"[3]; Hepatitis B virus, Hepatocyte, COMPOUND 25 0.37 μM alone",-7.52%
same,inhibition at 0.00333 µM,"[3]; Hepatitis B virus, Hepatocyte, read-out: AVERAGE % INHIBITION HBsAg, COMPOUND 25 3.33 nM alone",13.1%
same,inhibition at 0.01 µM,"[3]; Hepatitis B virus, Hepatocyte, read-out: AVERAGE % INHIBITION HBsAg, COMPOUND 25 10.00 nM alone",33%
same,inhibition at 3.33 µM,"[3]; Hepatitis B virus, Hepatocyte, read-out: AVERAGE % INHIBITION HBsAg, COMPOUND 25 3.33 μM alone",8.81%
same,inhibition at 10 µM,"[3]; Hepatitis B virus, Hepatocyte, read-out: AVERAGE % INHIBITION HBsAg, COMPOUND 25 10.00 μM alone",42.5%
same,EC50,"[3]; Hepatitis B virus, Hepatocyte, read-out: Inhibitor A EC50 HBsAg",4.5 nM
CNC(=O)N[C@H]1CCOc2c(C(=O)Nc3ccc(F)c(F)c3)ccc(F)c21 [Compound 23],inhibition at 0.02469 µM,"[1]; Hepatitis B virus, Hepatocyte, read-out: AVERAGE % INHIBITION HBeAg, compound 23 24.69 nM alone",-8.82%
same,inhibition at 0.07407 µM,"[1]; Hepatitis B virus, Hepatocyte, read-out: AVERAGE % INHIBITION HBeAg, compound 23 74.07 nM alone",-6.36%
same,inhibition at 0.22222 µM,"[1]; Hepatitis B virus, Hepatocyte, read-out: AVERAGE % INHIBITION HBeAg, compound 23 222.22 nM alone",-12.7%
same,inhibition at 0.66667 µM,"[1]; Hepatitis B virus, Hepatocyte, read-out: AVERAGE % INHIBITION HBeAg, compound 23 666.67 nM alone",-7.94%
same,inhibition at 2 µM,"[1]; Hepatitis B virus, Hepatocyte, read-out: AVERAGE % INHIBITION HBeAg, compound 23 2000.00 nM alone",-1.09%
same,EC50,"[1]; Hepatitis B virus, Hepatocyte, HBeAg, PHH, determined in an earlier separate experiment, read-out: Inhibitor B EC50",4530 nM
same,inhibition at 0.02469 µM,"[2]; Hepatitis B virus, Hepatocyte, read-out: AVERAGE % […] DNA, compound 23 24.69 nM alone (TDF study)",-15.3%
same,inhibition at 0.024691 µM,"[2]; Hepatitis B virus, Hepatocyte, read-out: AVERAGE % […] DNA, compound 23 24.691 nM alone (TAF study)",-4.57%
same,inhibition at 0.07407 µM,"[2]; Hepatitis B virus, Hepatocyte, read-out: AVERAGE % […] DNA, compound 23 74.07 nM alone (TDF study)",-36.6%
same,inhibition at 0.074074 µM,"[2]; Hepatitis B virus, Hepatocyte, read-out: AVERAGE % […] DNA, compound 23 74.074 nM alone (TAF study)",-2.49%
same,inhibition at 0.22222 µM,"[2]; Hepatitis B virus, Hepatocyte, read-out: AVERAGE % […] DNA, compound 23 222.22 nM alone (TAF study)",11.1%
same,inhibition at 0.22222 µM,"[2]; Hepatitis B virus, Hepatocyte, read-out: AVERAGE % […] DNA, compound 23 222.22 nM alone (TDF study)",0.78%
same,inhibition at 0.66667 µM,"[2]; Hepatitis B virus, Hepatocyte, read-out: AVERAGE % […] DNA, compound 23 666.67 nM alone (TAF study)",30.5%
same,inhibition at 0.66667 µM,"[2]; Hepatitis B virus, Hepatocyte, read-out: AVERAGE % […] DNA, compound 23 666.67 nM alone (TDF study)",30.4%
same,inhibition at 2 µM,"[2]; Hepatitis B virus, Hepatocyte, read-out: AVERAGE % […] DNA, compound 23 2000 nM alone (TAF study)",58.1%
same,inhibition at 2 µM,"[2]; Hepatitis B virus, Hepatocyte, read-out: AVERAGE % […] DNA, compound 23 2000.00 nM alone (TDF study)",70%
same,EC50,"[2]; Hepatitis B virus, Hepatocyte, HBV DNA, determined in an earlier separate experiment, read-out: Inhibitor B EC50",230 nM
same,inhibition at 0.02469 µM,"[3]; Hepatitis B virus, Hepatocyte, read-out: AVERAGE % INHIBITION HBsAg, compound 23 24.69 nM alone (TDF study)",-13.9%
same,inhibition at 0.024691 µM,"[3]; Hepatitis B virus, Hepatocyte, read-out: AVERAGE % INHIBITION HBsAg, compound 23 24.691 nM alone (TAF study)",0.77%
same,inhibition at 0.07407 µM,"[3]; Hepatitis B virus, Hepatocyte, read-out: AVERAGE % INHIBITION HBsAg, compound 23 74.07 nM alone (TDF study)",-10.9%
same,inhibition at 0.074074 µM,"[3]; Hepatitis B virus, Hepatocyte, read-out: AVERAGE % INHIBITION HBsAg, compound 23 74.074 nM alone (TAF study)",-5.27%
same,inhibition at 0.22222 µM,"[3]; Hepatitis B virus, Hepatocyte, read-out: AVERAGE % INHIBITION HBsAg, compound 23 222.22 nM alone (TAF study)",4.83%
same,inhibition at 0.22222 µM,"[3]; Hepatitis B virus, Hepatocyte, read-out: AVERAGE % INHIBITION HBsAg, compound 23 222.22 nM alone (TDF study)",-11.6%
same,inhibition at 0.66667 µM,"[3]; Hepatitis B virus, Hepatocyte, read-out: AVERAGE % INHIBITION HBsAg, compound 23 666.67 nM alone (TAF study)",1.95%
same,inhibition at 0.66667 µM,"[3]; Hepatitis B virus, Hepatocyte, read-out: AVERAGE % INHIBITION HBsAg, compound 23 666.67 nM alone (TDF study)",-4.45%
same,inhibition at 2 µM,"[3]; Hepatitis B virus, Hepatocyte, read-out: AVERAGE % INHIBITION HBsAg, compound 23 2000.00 nM alone (TDF study)",0.48%
same,EC50,"[3]; Hepatitis B virus, Hepatocyte, read-out: Inhibitor B EC50",4360 nM
